Values after ≈ are worked out from the molar mass of the structure shown. Where two headings read alike, the source gives them in different places.
Legend:
[1] = BPO solubility in water and in binary mixtures with surfactants; conditions: water
Text: The concentration of all surfactants was fixed at 6% w/w active.

[2] = cited from earlier work
[3] = in water and propylene glycol, storage; cited from earlier work
[4] = Chemical stability of BPO in wash formulations, shelf life prediction; assay type: physicochemical; conditions: wash formulations with increasing sorbitol concentrations
Description: BPO stability in the formulations of the present invention were assessed over time at 25° C./60% RH and 30° C./65% RH using environmentally controlled chambers. Specifically formulations containing 2.5% BPO or 10% BPO in glass vials were placed on stability, and monitored for BPO degradation.
Chemical stability of the BPO in surfactant based wash products is a challenge due to increased solubility of the BPO in these systems.

SMILES	solubility [1]	half-life of BPO in solution in water ([2]; pH 4)	half-life of BPO in solution in water ([2]; pH 7)	stability of benzoyl peroxide in suspension (dispersed form) [3]	effect on BPO stability (benzoic acid generated) [4]
O=C(OOC(=O)c1ccccc1)c1ccccc1 [BPO, Benzoyl peroxide]	3 µg/mL (≈ 12.4 µM)	11.87 h	5.20 h	not degraded after 90 days	
OC[C@@H](O)[C@@H](O)[C@H](O)[C@@H](O)CO [sorbitol, D-Sorbitol]					improve BPO stability

Reference: patent publication US20170128407A1, “NOVEL FORMULATIONS” (priority 2015, published 2017)
